The values that follow come from US8691764B2, “Inhibitors of NF-κB activity” (The Research Foundation for the State University of New York, priority 2007, dated 2014).

Assay type in all cases: cell-based, human
One test deals with NF-κB p65. Nature of the test: Co-immunoprecipitation of annexin 1 with p65, HT-29 cells. As to conditions: 3 h, NO-ASA 20 μM or Dex 4 μM. How it is done: The gel shift assays were carried out according to the manufacturer's protocol (Panomics). Nuclear proteins (10 μg) from each sample were mixed with 10 ng biotinylated p65 double-stranded oligonucleotide probes (5′-[…]-3′ and its complement) (SEQ ID NO:9) in the presence of 1 μg Poly(I/C) DNA. The mixture was incubated at room temperature for 30 min. The binding complex was then resolved using a 6% polyacrylamide/glycerol gel in 0.5% Tris-borate-EDTA, transferred onto a nylon membrane, and fixed on the membrane by UV cross-linking The biotin-labeled probe was detected with streptavidin-horseradish peroxidase. Co-immunoprecipitation was performed as follows: about 500 μg of cell extracts were incubated overnight with 5 μg of agarose-conjugated anti-p65 (Santa Cruz Biotechnology) or anti-annexin 1 antibody (Santa Cruz, Calif.). The precipitate was washed five times with washing buffer (Santa Cruz Biotechnology), dissolved in 2× Laemmli buffer, boiled, and separated by SDS-PAGE and detected by Western blot analysis using ECL™ (Amersham Biosciences) as described above. Control experiments were performed by using rabbit IgG for p65 and mouse IgG2b for annexin 1, respectively (Santa Cruz Biotechnology).

A further test concerns HT-29 cells. Nature of the test: Apoptosis, Cell Death Detection ELISA, HT-29 cells. How it is done: Apoptosis was determined using the Cell Death Detection ELISA^PLUS assay kit according to the manufacturer's protocol (Roche, Indianapolis, Ind.). Briefly, the cells were treated with either NO-ASA or Dex for 3 h. Cells were harvested and washed three times with PBS. The cell pellet was resuspended with lysis buffer and incubated for 30 min at RT. Cell […] at 200×g for 10 min. The ELISA assay was performed using 20 μl cell lysate and 80 μl Immunoreagent (containing 72 μl Incubation Buffer, 4 μl Anti-histone-biotin Solution, and 4 μl Anti-DNA-POD Solution) per micro-plate well. The micro-plate was covered with an adhesive foil and incubated on a shaker under gentle shaking at 200 rpm for 2 h at RT. The solution in each well was removed thoroughly by tapping and the pellets were rinsed three times with 200 μl Incubation Buffer. […] The absorbance was measured at 405 nm using the SpectraMax micro-plate reader (Molecular Devices, Sunnyvale).
Briefly, annexin 1 cDNA clones (OreGen) or the PCMV6XL5 vector, as a negative control, were transiently transfected into BxPC-3 cells grown to 40-60% confluency using Lipofectamine according to the product protocol (Invitrogen). […] NF-κB activity was subsequently measured by the TransBinding NF-κB Assay Kit and ELISA as described in Example 2. […]

The test system of a further test is annexin 1. As to the kind of experiment: Induction of annexin 1 in BxPC-3 cells, Western blot of nuclear and cytoplasmic extracts. How it is done: The human pancreatic cancer cell line, BxPC-3, or the colon cancer cell line HT-29, both from ATCC (Manassas, Va.) were maintained and grown in RPMI 1640 or McCoy's 5A medium (Cellgro) supplemented with 10% fetal bovine serum (HyClone) and 1% penicillin/streptomycin (Cellgro) in a humidified incubator at 37° C. and 5% CO2.
The cell fractions were obtained as described by Andrews and Faller (N. C. Andrews and D. V. Faller, Nucleic Acids Res. 19:2499 (1991)) with modification. Briefly, the cells were pelleted after treatment and washed three times with PBS. The cell pellets were resuspended in ice cold buffer A (10 mM HEPES, pH 7.9, 10 mM KCl, 1.5 mM MgCI2, 0.5 mM DTT, 0.5 mM PMSF) with protease inhibitor cocktail (Sigma) and incubated on ice for 15 min with occasional mixing by gently tapping the tube. The cell lysates were centrifuged up to 5000 rpm for three times. The supernatants were collected as cytoplasmic extracts. Nuclear pellets were washed with buffer A and resuspended in buffer C (20 mM HEPES, pH 7.9, 450 mM NaCl, 1.5 mM MgCI2, 0.2 mM EDTA, 0.5 mM DTT, 0.5 mM PMSF, 25% Glycerol) with protease inhibitor cocktail (Sigma) and incubated on ice for 30 min with occasional mixing to extract nuclear proteins. Nuclear extracts were cleared by centrifugation (14,800 rpm for 10 min) and the supernatants were collected as nuclear extracts.
For Western blotting, the proteins from both cytoplasmic extracts and nuclear extracts were separated by SDS-polyacrylamide gel electrophoresis and transferred onto PVDF membranes (Millipore). The membranes were blocked in 5% nonfat dry milk-TBS-T (20 mM Tris-HCl, pH 7.5, 500 mM NaCl. 0.3% Tween 20) at room temperature (RT) for an hour and probed with anti-annexin 1, c-IAP-1, c-IAP-2, and TRAF-1 (Santa Cruz Biotechnology, Inc. CA), and anti-Bcl-2 antibodies (Cell Signaling Technology), in 5% nonfat dry milk-TBS-T at 4° C. overnight. The blots were washed three times with TBS-T for 5 min each wash and incubated with horseradish peroxidase-conjugated secondary antibody (Santa Cruz) in 5% nonfat dry milk-TBS-T at RT for an hour. After five washes with TBS-T, the blots were developed with the enhanced chemiluminescence system (ECL™ Western Blotting System, Amersham Biosciences) and exposed to x-ray film according to the manufacturer's instructions. Protein loading was normalized using anti-β-actin antibodies (Santa Cruz Biotechnology, Inc).

As for nitric oxide-donating aspirin [NO-ASA], the “co-immunoprecipitation of annexin 1 with p65” value with NF-κB p65 is recorded as “co-immunoprecipitated with p65”. The “induced cell apoptosis after knock-down of annexin 1 by specific siRNA” value in the test on HT-29 cells (HT-29 cells (FIG. 3D)) is recorded as “completely abrogated”. In the test on HT-29 cells (HT-29 cells, 3 h), the cell apoptosis entry is “induced”. In the test with annexin 1 (cytoplasm), the “time of maximal annexin 1 levels in the cytoplasm” value was found to be 3 h. For the same substance, the “expression of annexin 1” value in the test with annexin 1 (nuclear and cytoplasmic extracts) was “induced”. Besides, the “time of peak annexin 1 levels in the nucleus” value in the test on annexin 1 (nucleus) is 3 h.
